Measurements as given in ChEMBL document CHEMBL4033638, “Effect of natural and semi-synthetic cadinanes from Heterotheca inuloides on NF-κB, Nrf2 and STAT3 signaling pathways and evaluation of their in vitro cytotoxicity in human cancer cell lines” (Bioorg Med Chem, 2017).
Active and inactive are the calls of the source. No cut-off for these calls is given here.

What was measured:
HCT-15 [1] = assay: Antiproliferative activity against human HCT15 cells after 48 hrs by sulforhodamine B assay; format: functional, cell-based; settings: HCT-15, 48 h
PC-3 [2] = assay: Antiproliferative activity against human PC3 cells at 50 uM after 48 hrs by sulforhodamine B assay relative to control; format: functional; settings: PC-3, 48 h
PC-3 [3] = assay: Antiproliferative activity against human PC3 cells after 48 hrs by sulforhodamine B assay; format: functional, cell-based; settings: PC-3, 48 h
U-251 [4] = assay: Antiproliferative activity against human U251 cells at 50 uM after 48 hrs by sulforhodamine B assay relative to control; format: functional; settings: for inhibition at 50 µM: U-251, 48 h
U-251 [5] = assay: Antiproliferative activity against human U251 cells after 48 hrs by sulforhodamine B assay; format: functional, cell-based; settings: U-251, 48 h
SK-LU-1 [6] = assay: Antiproliferative activity against human SK-LU-1 cells after 48 hrs by sulforhodamine B assay; format: functional, cell-based; settings: SK-LU-1, 48 h
K562 [7] = assay: Antiproliferative activity against human K562 cells at 50 uM after 48 hrs by sulforhodamine B assay relative to control; format: functional; settings: for inhibition at 50 µM: K562, 48 h
K562 [8] = assay: Antiproliferative activity against human K562 cells after 48 hrs by sulforhodamine B assay; format: functional, cell-based; settings: K562, 48 h
SK-LU-1 [9] = assay: Antiproliferative activity against human SK-LU-1 cells at 50 uM after 48 hrs by sulforhodamine B assay relative to control; format: functional; settings: for inhibition at 50 µM: SK-LU-1, 48 h
MCF7 [10] = assay: Antiproliferative activity against human MCF7 cells after 48 hrs by sulforhodamine B assay; format: functional, cell-based; settings: MCF7, 48 h
HCT-15 [11] = assay: Antiproliferative activity against human HCT15 cells at 50 uM after 48 hrs by sulforhodamine B assay relative to control; format: functional; settings: for inhibition at 50 µM: HCT-15, 48 h
[12] = target: T1, Nuclear factor erythroid 2-related factor 2 (Homo sapiens) (UniProt Q16236); assay: Activation of Nrf2 in human HaCaT-ARE-Luc cells at 50 uM after 6 hrs by luciferase reporter gene assay relative to control; format: cell-based
T1 sequence (whole entry): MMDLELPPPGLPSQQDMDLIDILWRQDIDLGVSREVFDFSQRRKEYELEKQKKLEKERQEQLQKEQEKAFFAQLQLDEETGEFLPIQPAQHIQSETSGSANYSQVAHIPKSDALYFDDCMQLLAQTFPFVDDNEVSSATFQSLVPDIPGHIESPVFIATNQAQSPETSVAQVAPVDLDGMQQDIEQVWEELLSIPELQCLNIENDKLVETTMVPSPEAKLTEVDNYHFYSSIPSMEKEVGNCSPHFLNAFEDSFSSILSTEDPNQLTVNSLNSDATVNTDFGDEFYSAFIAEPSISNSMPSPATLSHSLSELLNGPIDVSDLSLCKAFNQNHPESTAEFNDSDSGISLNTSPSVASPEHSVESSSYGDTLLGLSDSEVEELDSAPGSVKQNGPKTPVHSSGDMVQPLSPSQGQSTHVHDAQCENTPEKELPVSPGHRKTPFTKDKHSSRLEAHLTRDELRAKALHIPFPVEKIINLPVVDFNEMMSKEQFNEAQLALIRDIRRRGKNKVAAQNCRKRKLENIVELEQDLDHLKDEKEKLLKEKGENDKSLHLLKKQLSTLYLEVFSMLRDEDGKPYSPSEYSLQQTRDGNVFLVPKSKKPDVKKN

[13] = Inhibition of TNFalpha-stimulated NFkappaB (unknown origin) expressed in mouse NIH-3T3-KBFLuc cells at 50 uM after 6 hrs by luciferase reporter gene assay relative to control; format: cell-based; settings: Homo sapiens
MCF7 [14] = assay: Antiproliferative activity against human MCF7 cells at 50 uM after 48 hrs by sulforhodamine B assay relative to control; format: functional; settings: MCF7, 48 h
[15] = target: Signal transducer and activator of transcription 3 (Homo sapiens) (UniProt P40763); assay: Inhibition of IFNgamma-stimulated STAT3 (unknown origin) activation expressed in human HeLa cells at 50 uM after 6 hrs by luciferase reporter gene assay relative to control; format: cell-based
Sequence of Signal transducer and activator of transcription 3 (Homo sapiens) (P40763 whole entry): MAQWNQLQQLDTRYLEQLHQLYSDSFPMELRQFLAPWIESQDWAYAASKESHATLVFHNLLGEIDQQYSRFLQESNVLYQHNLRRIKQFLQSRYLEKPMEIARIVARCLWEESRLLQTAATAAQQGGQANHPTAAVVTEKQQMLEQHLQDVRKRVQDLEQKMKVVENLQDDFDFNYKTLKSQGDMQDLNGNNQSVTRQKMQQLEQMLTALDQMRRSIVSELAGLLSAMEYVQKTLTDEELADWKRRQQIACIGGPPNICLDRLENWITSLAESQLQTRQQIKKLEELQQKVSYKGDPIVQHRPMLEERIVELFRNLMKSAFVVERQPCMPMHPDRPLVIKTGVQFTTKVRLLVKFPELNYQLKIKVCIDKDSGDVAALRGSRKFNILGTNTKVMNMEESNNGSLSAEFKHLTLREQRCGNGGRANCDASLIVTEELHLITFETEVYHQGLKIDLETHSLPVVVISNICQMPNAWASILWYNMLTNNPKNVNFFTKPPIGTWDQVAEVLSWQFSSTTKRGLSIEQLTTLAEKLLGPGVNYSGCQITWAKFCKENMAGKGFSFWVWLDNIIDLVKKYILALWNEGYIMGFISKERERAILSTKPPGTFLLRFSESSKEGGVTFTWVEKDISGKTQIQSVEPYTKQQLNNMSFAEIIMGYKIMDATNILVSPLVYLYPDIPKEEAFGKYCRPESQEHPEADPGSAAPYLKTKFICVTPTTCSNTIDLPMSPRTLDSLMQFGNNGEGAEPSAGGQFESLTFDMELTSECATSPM

[16] = Cytotoxicity against human gingival fibroblasts assessed as decrease in cell viability at 50 uM after 48 hrs by sulforhodamine B dye-based assay relative to control; settings: gingival fibroblast

SMILES | IC50 (HCT-15 [1]) | inhibition at 50 µM (PC-3 [2]) | IC50 (PC-3 [3]) | inhibition at 50 µM (U-251 [4]) | IC50 (U-251 [5]) | IC50 (SK-LU-1 [6]) | inhibition at 50 µM (K562 [7]) | IC50 (K562 [8]) | inhibition at 50 µM (SK-LU-1 [9]) | IC50 (MCF7 [10]) | inhibition at 50 µM (HCT-15 [11]) | fold change (FC) [12] | inhibition [13] | inhibition at 50 µM (MCF7 [14]) | inhibition [15] | Activity [16] | inhibition (SK-LU-1 [9]) | inhibition (U-251 [4]) | inhibition (K562 [7]) | inhibition (HCT-15 [11])
CC1=CC[C@H](C(C)C)c2cc(C)c(OC(=O)Nc3ccccc3)cc21 | 0.03 µM | 93.2% | 7.93 µM | 100% | 0.46 µM | 0.12 µM | 92.6% | 0.3 µM | 100% | 4.05 µM | 92% | 1.6 | 4.2% | 75.1% | 3.3% | 38.24% | – | – | – | –
Cc1cc2c(C(C)C)ccc(C)c2cc1OC(=O)c1ccc(Cl)cc1 | 34 µM | 81.1% | 44 µM | 92.8% | 35.5 µM | 23.9 µM | 95.4% | 19.1 µM | 100% | 32.1 µM | 82.2% | 1.7 | 15.5% | 76% | 1.3% | – | – | – | – | –
Cc1ccc(C(=O)Oc2cc3c(C)ccc(C(C)C)c3cc2C)cc1 | 12 µM | 72.3% | 23.7 µM | 100% | 22.8 µM | 10.2 µM | 100% | 8.37 µM | 100% | 8.2 µM | 86.5% | 1.8 | 30.3% | 90.2% | 2.9% | 13.37% | – | – | – | –
Cc1cccc(C(=O)Oc2cc3c(C)ccc(C(C)C)c3cc2C)c1 | – | 52.4% | 47.1 µM | 5.2% | – | – | 17.1% | – | – | – | 27.6% | 1.8 | 4.8% | 50.4% | 2% | – | inactive | – | – | –
CC1=CC[C@H](C(C)C)c2cc(C)c(OC(=O)c3cccc(C(F)(F)F)c3)cc21 | – | 25.4% | – | 29.3% | – | – | 45.5% | – | 18.3% | – | 15% | 1.9 | 4.4% | 86% | 1.7% | – | – | – | – | –
COc1cccc(C(=O)Oc2cc3c(C)ccc(C(C)C)c3cc2C)c1 | – | 12.5% | – | – | – | – | 14.2% | – | 30.6% | – | 35.2% | 1.5 | 2.8% | 31.8% | 0.8% | – | – | inactive | – | –
COc1cccc(C(=O)Oc2cc3c(cc2C)[C@@H](C(C)C)CC=C3C)c1 | – | 16.3% | – | – | – | – | – | – | 24.2% | – | – | 1.6 | 41.2% | 11.9% | 3.3% | – | – | inactive | inactive | inactive
CC1=CC[C@H](C(C)C)c2cc(C)c(OC(=O)c3cccc([N+](=O)[O-])c3)cc21 | – | 36.9% | – | 44% | – | – | 15.9% | – | 60.4% | – | 45.9% | 1.5 | 3.5% | 29.3% | 3.2% | – | – | – | – | –
CC1=CC[C@H](C(C)C)c2cc(C)c(OC(=O)c3cccc(C)c3)cc21 | – | 38.6% | – | 16.8% | – | – | – | – | – | – | 5.3% | 1.7 | 44.2% | 54.9% | 2.3% | – | inactive | – | inactive | –
CC1=CC[C@H](C(C)C)c2cc(C)c(OC(=O)c3ccc(C(F)(F)F)cc3)cc21 | – | 12.3% | – | 14.7% | – | – | 9% | – | – | – | 6.4% | 1.6 | 25.4% | 40.4% | 2.5% | – | inactive | – | – | –
CC1=CC[C@H](C(C)C)c2cc(C)c(OC(=O)c3ccc([N+](=O)[O-])cc3)cc21 | 56.3 µM | 36.7% | 42.5 µM | 16.8% | – | 42.9 µM | 89% | – | 47.5% | – | 67.8% | 8.5 | 7.2% | 72.9% | 1.6% | – | – | – | – | –
Cc1cc2c(C(C)C)ccc(C)c2cc1OC(=O)c1ccccc1 | – | 21.2% | – | 41.5% | – | – | 44.3% | – | 63% | – | 72% | 1.9 | 34.5% | 51% | 0.5% | – | – | – | – | –
CC1=CC[C@H](C(C)C)c2cc(C)c(OC(=O)c3cccc(Cl)c3)cc21 | – | 23.4% | – | 0.9% | – | – | – | – | 30.6% | – | 5.3% | 1.4 | 22.5% | 40.4% | 1.5% | – | – | – | inactive | –
Cc1cc2c(C(C)C)ccc(C)c2cc1OC(=O)c1ccc(C(F)(F)F)cc1 | – | 100% | 34 µM | 16.5% | – | – | 45.1% | – | 28.7% | – | 55.6% | 1.7 | 5.2% | 16.8% | 0.9% | – | – | – | – | –
COc1ccc(C(=O)Oc2cc3c(cc2C)[C@@H](C(C)C)CC=C3C)cc1 | – | 60.6% | 32.2 µM | 37% | – | – | 46.5% | – | 18.6% | – | 30.8% | 1.9 | 49.2% | 80.1% | 1.8% | – | – | – | – | –
